Experimental findings from patent publication US4371537A, “Sulfur-substituted phenoxypyridines having antiviral activity” (The Dow Chemical Company, priority 1981, dated 1983) are described below.

In brackets after ≈: the same amount, converted by molar mass.

In data set [1] the test system is Rhinovirus Type 39. Description: Inhibition of cytopathic effect in WI-38 cell culture tubes, rhinovirus type 39. Format: cell-based. To be noted: Enterovirus, WI-38 cells, read-out: Inhibition grade, Rhinovirus Type 39; for inhibition at 25 µg/mL: 25 μg/ml. Here is the method: (§1) The test compound was dissolved in an appropriate solvent (generally dimethyl sulfoxide) and incubated at 56° C. for at least 15 minutes and this solution was then used to prepare various test solutions having the desired concentration of test compound in preheated WI maintenance medium (49% Eagles, 49% medium 199, 2% fetal calf serum and antibiotics).
(§2) Triplicate cell culture tubes (WI-38 human embryonic lung cell culture tubes) were fed with 1 ml of medium containing the compound at specified concentrations and inoculated with 3-300 TCID50 (3-300 times the tissue culture infective dose 50, i.e., the dose required to infect 50% of the cell cultures tested). Simultaneous viral titrations were performed. The tissue cultures were supplemented with fresh medium when necessary (around 3-4 days) until viral titrations were completed.
(§3) The cell culture tubes were examined dialy for cytopathic effect. […] Comparisons were made at that time with the percentage of cell sheet destruction in tubes containing virus compound mixtures. Observed differences of 75% or more were graded "+", 74-50% as "±", and less than 50% as "-" inhibition.
On the technique in general: Damage to the host cells serves as the signal in cytopathic effect assays.

The subject of data set [2] is Cox A21. Description: Single Oral Dose test in mice challenged IP with Cox A21. In kind it is in vivo, Swiss male mice. To be noted: 600 mg/kg P.O. 3 h after IP challenge; >3.84 significant (95% confidence level). Put shortly: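 A single P.O. treatment with compound suspended in 0.5% hydroxypropyl methylcellulose was given 3 h after intraperitoneal Cox A21 challenge at a normally lethal dose in 8-12 g male Swiss mice. Survival followed 7-10 days; significance versus vehicle-treated infected mice by modified Mantel-Haenzel chi-square (>3.84, 95% level).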

For data set [3], the system named is Rhinovirus Type 64. Kind of data set: Inhibition of cytopathic effect in WI-38 cell culture tubes, rhinovirus type 64. In kind it is cell-based. To be noted: Enterovirus, WI-38 cells, read-out: Inhibition grade, Rhinovirus Type 64; for inhibition at 25 µg/mL: 25 μg/ml. The method, then:
as §1, §2, §3

The nature of data set [4]: Cytotoxicity in tissue culture testing (HeLa monolayers). Format: cell-based. To be noted: human; HeLa cells; observed at 48 and 72 hours post-treatment; read-out: Cytotoxicity: concentration of the compound found to be toxic to the cell. Put shortly: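 Compound in Eagle's medium plus fetal calf serum was applied to monolayered HeLa cells; cultures were then infected with RV-1A, RV-2 or Coxsackie A21, with RV-5, RV-8 or RV-64 for some compounds. Controls received no compound or no virus.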

The test system of data set [5] is rhinovirus type 5 (RV-5). Kind of data set: Tissue culture testing, rhinovirus type 5 in HeLa cells. To be noted: Enterovirus, 48 and 72 hours, NA = not active at the standard test conditions, read-out: RV-5: lowest concentration of the compound necessary to cause a 50 percent reduction in cytopathic effect. In kind it is cell-based. Here is the method:
Monolayered HeLa cells in 16 millimeter (mm) tissue culture dishes were treated with 1 ml of culture medium (Eagles medium supplemented with fetal calf serum) containing subject compound at an appropriate concentration or containing no compound at all. Culture media such as those described herein are more fully described in standard texts, as for example, Kuchler's Biochemical Methods in Cell Culture and Virology, Dowden, Hutchinson and Ross, Inc., Stroudsberg, PA (1977). Following treatment, cells were challenged with 0.05 ml of rhinovirus type 1A (RV-1A), rhinovirus type 2 (RV-2) or Coxsackie A21 virus (Cox A21) in culture medium. Some of the compounds were also tested against rhinovirus type 5 (RV-5), rhinovirus type 8 (RV-8) or rhinovirus type 64 (RV-64). Cell controls received no viruses.
^2 Lowest concentration of the compound (μg/ml) necessary to cause

The subject of data set [6] is Coxsackie A21 virus (Cox A21). Description: Tissue culture testing, Coxsackie A21 virus in HeLa cells. The conditions noted are these: 48 and 72 hours, NA = not active at the standard test conditions, read-out: Cox A21: lowest concentration of the compound necessary to cause a 50 percent reduction in cytopathic effect. In kind it is cell-based. The procedure, abridged: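 HeLa monolayers pretreated with compound in Eagle's medium with fetal calf serum, then challenged with virus; uninfected cell controls included. Value reported is the lowest compound concentration (μg/ml) needed for the effect.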

Data set [7] relates to Rhinovirus Type 19. Description: Inhibition of cytopathic effect in WI-38 cell culture tubes, rhinovirus type 19. To be noted: Enterovirus, WI-38 cells, read-out: Inhibition grade, Rhinovirus Type 19; for inhibition at 25 µg/mL: 25 μg/ml. In kind it is cell-based. The method, then: as §1, §2, §3
Data set [8] deals with Rhinovirus Type 8. Description: Inhibition of cytopathic effect in WI-38 cell culture tubes, rhinovirus type 8. The conditions noted are these: Enterovirus, WI-38 cells, read-out: Inhibition grade, Rhinovirus Type 8; for inhibition at 25 µg/mL: 25 μg/ml. Format: cell-based. Here is the method:
as §1, §2, §3

The test system of data set [9] is Rhinovirus Type 68. Kind of data set: Inhibition of cytopathic effect in WI-38 cell culture tubes, rhinovirus type 68. In kind it is cell-based. To be noted: Enterovirus, WI-38 cells, read-out: Inhibition grade, Rhinovirus Type 68; for inhibition at 25 µg/mL: 25 μg/ml. Here is the method:
as §1, §2, §3

Data set [10] has as its system 20 different rhinoviruses. Kind of data set: Summary of WI-38 tissue culture testing against 20 rhinoviruses. In kind it is cell-based. The conditions noted are these: 3.0 μg/ml. The method, then:
as §1, §2, §3

Consider `CS(=O)(=O)c1ccc(Oc2ccc(C(=O)c3ccccc3)cc2)nc1` [Example 31, (4-((5-(methylsulfonyl)-2-pyridinyl)oxy)phenyl)phenylmethanone], for which the inhibition (commonly the change of the read-out against control, counted positive when it falls) at 25 µg/mL was < 50% in [1]; 50 to 74% in data set [3]; ≥ 75% in data set [7]; < 50% in data set [8]; ≥ 75% in [9]. In data set [2], the “Single Oral Dose X^2 (chi-square, deaths vs virus control)” value is 19.383. For the same compound, the MCC in data set [4] was > 100 µg/mL. The EC50 in data set [5] turned out to be 6.25 mg/L (≈ 17.7 µM); in data set [6], 0.125 mg/L (≈ 0.354 µM).

As to `CCS(=O)(=O)c1ccc(Oc2ccc(C(=O)c3ccccc3)cc2)nc1` [Example 43, (4-((5-(ethylsulfonyl)-2-pyridinyl)oxy)phenyl)phenylmethanone], the inhibition at 3 µg/mL in data set [1] (3.0 μg/ml) is < 50%; in data set [3] (3.0 μg/ml) it was < 50%; in data set [7] (3.0 μg/ml) it was < 50%; in [8] (3.0 μg/ml) it was < 50%; in data set [9] (3.0 μg/ml), 50 to 74%. For the same compound, the “Single Oral Dose X^2 (chi-square, deaths vs virus control)” value in [2] is given as 45.207. Moreover, in data set [4], the MCC was 25 µg/mL. Moreover, the “inhibition of the multiplication of the majority of the 20 test rhinoviruses” value in data set [10] is given as “failed to inhibit the multiplication of the majority of the 20 test rhinoviruses”. Besides, the EC50 is 12.5 mg/L (≈ 34 µM) in data set [5] and < 3.12 mg/L in data set [6].

On to `CCS(=O)(=O)c1ccc(Oc2ccc(Cl)c(Cl)c2)nc1` [Example 47, 2-(3,4-dichlorophenoxy)-5-(ethylsulfonyl)pyridine], for which the inhibition at 25 µg/mL is 50 to 74% in [1]; ≥ 75% in [3]; ≥ 75% in [7]; < 50% in [8]; ≥ 75% in [9]. Besides, the “Single Oral Dose X^2 (chi-square, deaths vs virus control)” value in data set [2] was 25.587. For the same compound, the MCC in [4] is > 50 µg/mL. In addition, the EC50 in data set [6] worked out at 2.5 mg/L (≈ 7.53 µM).

Take `CCS(=O)(=O)c1ccc(Oc2ccc(Cl)cc2)nc1` [Example 42, 2-(4-chlorophenoxy)-5-(ethylsulfonyl)pyridine]: the inhibition at 12.5 µg/mL is < 50% in data set [1] (12.5 μg/ml); ≥ 75% in [3] (12.5 μg/ml); ≥ 75% in [7] (12.5 μg/ml); < 50% in data set [8] (12.5 μg/ml); ≥ 75% in [9] (12.5 μg/ml). For the same compound, the “Single Oral Dose X^2 (chi-square, deaths vs virus control)” value in [2] came out at 46.453. Moreover, the MCC in [4] is ≥ 50 µg/mL. Also, in data set [6], the EC50 was found to be 3.12 mg/L (≈ 10.5 µM).
